The subject of series [1] is KARPAS-299. Briefly: cells. Particulars: Homo sapiens.
In series [2] the test system is BaF3. Briefly: cells. Particulars: Mus musculus.
The nature of series [3]: Solubility of the compound […] at pH 6.8. Format: physicochemical.
Series [4] has as its target Cytochrome P450 3A4 (Homo sapiens, UniProt P08684). Briefly: Inhibition of CYP3A4 in human liver microsomes using midazolam as substrate by LC-MS/MS analysis. The class given is ADME, Microsome. For orientation: Liver microsomes are a subcellular fraction often used to study metabolism.
A short description of series [5]: Intrinsic clearance in human liver microsomes. The class given is ADME, Microsome. The settings on record: read-out: CLH.
Series [6] can be described thus: Intrinsic clearance in mouse liver microsomes. The class given is ADME, Microsome. The settings on record: read-out: CLH.
Series [7] can be described thus: Intrinsic clearance in rat liver microsomes. Format: ADME, Microsome. The settings on record: read-out: CLH.
In series [8] the target is T1, Voltage-gated inwardly rectifying potassium channel KCNH2 (Homo sapiens, UniProt Q12809).
Description: Inhibition of human ERG by dofetilide binding assay
Series [9] addresses T1, Voltage-gated inwardly rectifying potassium channel KCNH2. Briefly: Inhibition of human ERG by patch-clamp technique. (Patch clamp records ionic current or voltage across a cell membrane.)
Series [10] in a line: Oral bioavailability in Sprague-Dawley rat at 10 mg/kg. Format: ADME, organism-based. The settings on record: in vivo.

Data on 23 molecules can be found in ChEMBL document CHEMBL2401692, “Synthesis, structure-activity relationships, and in vivo efficacy of the novel potent and selective anaplastic lymphoma kinase (ALK) inhibitor 5-chloro-N2-(2-isopropoxy-5-methyl-4-(piperidin-4-yl)phenyl)-N4-(2-(isopropylsulfonyl)phenyl)pyrimidine-2,4-diamine (LDK378) currently in phase 1 and phase …” (J Med Chem, 2013).

The IC50 is the concentration at which inhibition is half-maximal. Higher therefore signals a need for much substance. For orientation: solubility means the concentration that dissolves in the medium under given conditions. The low end stands for a poorly soluble substance, the high end for a readily soluble substance. One may read the bioavailability as dose-corrected exposure relative to a reference, in per cent.

Structures are written as SMILES. Converted amounts (≈) assume the structure as drawn. Where only a bound is given, the exact number is not on record here.

Cytochrome P450 3A4, sequence (P08684 whole entry): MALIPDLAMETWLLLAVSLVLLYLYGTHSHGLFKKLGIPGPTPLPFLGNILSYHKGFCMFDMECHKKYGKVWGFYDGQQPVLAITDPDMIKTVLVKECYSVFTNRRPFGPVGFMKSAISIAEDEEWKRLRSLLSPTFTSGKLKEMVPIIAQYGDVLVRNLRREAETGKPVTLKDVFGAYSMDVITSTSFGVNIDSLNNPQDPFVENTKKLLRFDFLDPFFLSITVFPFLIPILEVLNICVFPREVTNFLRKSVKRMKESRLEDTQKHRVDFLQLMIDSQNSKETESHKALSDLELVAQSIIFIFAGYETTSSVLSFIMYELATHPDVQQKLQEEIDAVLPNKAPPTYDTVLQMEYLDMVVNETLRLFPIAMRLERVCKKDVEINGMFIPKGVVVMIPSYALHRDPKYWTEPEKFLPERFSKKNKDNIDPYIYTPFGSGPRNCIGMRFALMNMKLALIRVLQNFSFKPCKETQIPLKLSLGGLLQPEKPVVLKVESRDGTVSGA
T1 sequence (Q12809 whole entry): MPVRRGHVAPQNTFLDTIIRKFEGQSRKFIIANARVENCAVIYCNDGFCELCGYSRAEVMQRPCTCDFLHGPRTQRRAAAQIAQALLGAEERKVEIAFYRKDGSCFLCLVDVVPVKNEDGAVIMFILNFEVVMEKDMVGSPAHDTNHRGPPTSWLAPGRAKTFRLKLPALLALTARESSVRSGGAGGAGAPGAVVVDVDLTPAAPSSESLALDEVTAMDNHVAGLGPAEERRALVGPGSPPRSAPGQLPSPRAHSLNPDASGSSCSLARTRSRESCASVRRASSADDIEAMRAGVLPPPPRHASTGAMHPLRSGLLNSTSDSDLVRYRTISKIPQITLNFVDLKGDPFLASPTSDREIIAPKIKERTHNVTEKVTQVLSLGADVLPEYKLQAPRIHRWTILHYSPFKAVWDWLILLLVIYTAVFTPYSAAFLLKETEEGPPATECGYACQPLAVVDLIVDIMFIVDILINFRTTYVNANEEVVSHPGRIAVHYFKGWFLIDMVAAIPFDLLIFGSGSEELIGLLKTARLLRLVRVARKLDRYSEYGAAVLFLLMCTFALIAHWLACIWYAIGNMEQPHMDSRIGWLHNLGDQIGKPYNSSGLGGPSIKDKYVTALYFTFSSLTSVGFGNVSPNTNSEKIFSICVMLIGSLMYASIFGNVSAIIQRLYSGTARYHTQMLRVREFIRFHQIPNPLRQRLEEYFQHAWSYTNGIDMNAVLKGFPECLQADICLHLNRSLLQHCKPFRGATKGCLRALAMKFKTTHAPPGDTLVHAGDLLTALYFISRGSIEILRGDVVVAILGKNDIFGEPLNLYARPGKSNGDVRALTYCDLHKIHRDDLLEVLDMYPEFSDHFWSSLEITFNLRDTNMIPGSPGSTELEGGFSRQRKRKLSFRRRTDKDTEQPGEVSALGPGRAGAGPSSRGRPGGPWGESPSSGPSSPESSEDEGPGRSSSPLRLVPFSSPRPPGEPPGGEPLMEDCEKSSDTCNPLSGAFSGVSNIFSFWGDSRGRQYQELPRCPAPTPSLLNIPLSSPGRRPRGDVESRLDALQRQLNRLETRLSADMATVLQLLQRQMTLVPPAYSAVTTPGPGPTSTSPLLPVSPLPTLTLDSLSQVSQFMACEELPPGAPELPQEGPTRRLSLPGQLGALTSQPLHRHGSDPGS

With `CCN1CCC(c2cc(OC(C)C)c(Nc3ncc(Cl)c(Nc4ccccc4S(=O)(=O)C(C)C)n3)cc2C)CC1`, the results for the IC50 in series [1] and in [2] were 11.1 nM and 4120 nM, respectively.
As to `Cc1cc(Nc2ncc(Cl)c(Nc3ccccc3S(=O)(=O)C(C)C)n2)c(OC(C)C)cc1C1CCN(CC(=O)O)CC1`, the IC50 in series [1] was 15.3 nM; in [2] it was above 10000 nM.
As for `Cc1cc(Nc2ncc(C)c(Nc3ccccc3S(=O)(=O)C(C)C)n2)c(OC(C)C)cc1C1CCNCC1`, the half-inhibitory concentration (IC50) in series [1] came out at 13.1 nM; in series [2] it was 2880 nM.
Regarding `Cc1cc(Nc2ncc(Cl)c(Nc3ccccc3S(=O)(=O)C(C)C)n2)c(OC(C)C)cc1C1CCN(C(C)C)CC1`, the IC50 in series [1] is 14.5 nM; in [2] it was 3860 nM.
As for `CCN1CCC(c2cc(OC(C)C)c(Nc3ncc(C)c(Nc4ccccc4S(=O)(=O)C(C)C)n3)cc2C)CC1`, the IC50 in [1] is 10.5 nM; in series [2], 4000 nM.
In the case of `Cc1cc(Nc2ncc(Cl)c(Nc3ccccc3S(=O)(=O)C(C)C)n2)c(OC(C)C)cc1C1CCN(CC(N)=O)CC1`, the IC50 came to 7.9 nM in [1] and 7540 nM in [2].
For `Cc1cc(Nc2ncc(Cl)c(Nc3ccccc3S(=O)(=O)C(C)C)n2)c(OC(C)C)cc1C1CCN(CCO)CC1`, the concentration in solution in [3] (solubility) was 36 µM (≈ 21.7 µg/mL). The INH in series [4] is 2.5 µM. Further, the microsomal CLint in series [5] was determined as 15 µL/min/mg; in series [6], 15 µL/min/mg; in [7], 14 µL/min/mg. The molecule further showed an IC50 in [2] of 4340 nM.
For `Cc1cc(Nc2ncc(Cl)c(Nc3ccccc3S(=O)(=O)C(C)C)n2)c(OC(C)C)cc1C1CCNC(=O)C1` (centres undefined), the IC50 in series [1] is 38.4 nM; in series [2], above 10000 nM.
For `Cc1cc(Nc2cc(Nc3ccccc3S(=O)(=O)C(C)C)c(Cl)cn2)c(OC(C)C)cc1C1CCN(C)CC1`, in that order: 5510 nM and 5410 nM.
`Cc1cc(Nc2ncc(Cl)c(Nc3ccccc3S(=O)(=O)C(C)C)n2)c(OC(C)C)cc1C1CCN(CC(F)F)CC1`: the IC50 is 294 nM in series [1] and above 10000 nM in series [2].
Turning to `Cc1cc(Nc2ncc(C)c(Nc3ccccc3S(=O)(=O)C(C)C)n2)c(OC(C)C)cc1C1CCN(CCO)CC1`, the IC50 in series [1] is 23.8 nM; in [2], above 10000 nM.
On to `CC(C)Oc1cc(N2CCC(N3CCN(C)CC3)CC2)ccc1Nc1ncc(Cl)c(Nc2ccccc2S(=O)(=O)C(C)C)n1`, for which the IC50 in series [1] came to 25.5 nM; in [2], 3400 nM.
Regarding `Cc1cc(Nc2ncc(Cl)c(Nc3ccccc3S(=O)(=O)N(C)C)n2)c(OC(C)C)cc1C1CCN(C)CC1`, the figures for the IC50 in series [1] and in series [2] were 14.3 nM and 1190 nM, respectively.
As to `COCCN1CCC(c2cc(OC(C)C)c(Nc3ncc(Cl)c(Nc4ccccc4S(=O)(=O)C(C)C)n3)cc2C)CC1`, the values for the IC50 in series [1] and in [2] were 16.1 nM and 4970 nM, respectively.
`Cc1cc(Nc2ncc(Cl)c(Nc3ccccc3S(=O)(=O)C(C)C)n2)c(OC(C)C)cc1C1CCN(C(=O)CN(C)C)CC1`: in series [3], the solubility came to 4 µM (≈ 2.57 µg/mL). The molecule also showed an INH in series [4] of 0.6 µM. The microsomal CLint in series [5] amounted to 46 µL/min/mg; in series [6] it was 45 µL/min/mg; in series [7], 21 µL/min/mg. In addition, the IC50 in series [1] worked out at 21.7 nM; in [2] it was 2740 nM.
`COCCN1CCC(c2cc(OC(C)C)c(Nc3ncc(C)c(Nc4ccccc4S(=O)(=O)C(C)C)n3)cc2C)CC1`: the IC50 in series [1] amounted to 22.4 nM; in series [2], 4410 nM.
In [3], `CC(C)Oc1nc(C2CCNCC2)ncc1Nc1ncc(Cl)c(Nc2ccccc2S(=O)(=O)C(C)C)n1` gave a solubility of 138 µM (≈ 75.4 µg/mL). The same molecule yielded an INH in series [4] of 9.3 µM. The microsomal CLint was determined as 16 µL/min/mg in [5], 21 µL/min/mg in [6] and 18 µL/min/mg in [7]. Moreover, the IC50 in series [8] is 400 nM; in series [1] it was 33.3 nM; in series [2], 3800 nM.
For the molecule `Cc1cc(Nc2ncc(Cl)c(Nc3ccccc3S(=O)(=O)C(C)C)n2)c(OC(C)C)cc1C1CCN(C2CCN(C)CC2)CC1`, the concentration for half-maximal inhibition (IC50) in series [1] worked out at 100 nM; in series [2], 1420 nM.
The corresponding values for `Cc1cc(Nc2ncc(Cl)c(Nc3ccccc3S(=O)(=O)C3CCC3)n2)c(OC(C)C)cc1C1CCNCC1` are 13.5 nM and 2460 nM.
For `Cc1cc(Nc2ncc(C)c(Nc3ccccc3S(=O)(=O)C(C)C)n2)c(OC(C)C)cc1C1CCN(C)CC1`, the IC50 in [9] was found to be 20000 nM; in [8], 1100 nM; in series [1] it was 15.6 nM; in series [2] it was 4080 nM. Besides, in series [3], the concentration in solution (solubility) came to 144 µM (≈ 79.5 µg/mL). Also, the INH in series [4] was 9.8 µM. Besides, the microsomal CLint stood at 8 µL/min/mg in series [5], 15 µL/min/mg in series [6] and 14 µL/min/mg in series [7].
For the molecule `Cc1cc(Nc2ncc(Cl)c(Nc3ccccc3S(=O)(=O)C(C)C)n2)c(OC2CCC2)cc1C1CCNCC1`, the solubility in [3] is below 2 µM. For the same molecule, in series [4], the INH was determined as 7.3 µM. Besides, the microsomal CLint in series [5], in series [6] and in series [7] was 15 µL/min/mg throughout. Also, the figures for the IC50 in [1] and in [2] were 13.1 nM and 2520 nM, respectively.
`CC(C)Oc1cc(C2CCNCC2)ccc1Nc1ncc(Cl)c(Nc2ccccc2S(=O)(=O)C(C)C)n1`: the bioavailability in [10] was found to be 12%. This molecule showed a solubility in series [3] of 4 µM (≈ 2.18 µg/mL). The INH in series [4] is 1.4 µM. In addition, the microsomal CLint in series [5], in [6] and in [7] was 15 µL/min/mg throughout. The IC50 in series [1] came to 7.8 nM; in series [2] it was 3010 nM.
With `Cc1cc(Nc2ncc(Cl)c(Nc3ccccc3S(=O)(=O)C(C)C)n2)c(OC(C)C)cc1C1CCN(C)CC1`, in [3], the concentration in solution (solubility) was 64 µM (≈ 36.6 µg/mL). In addition, the INH in series [4] was found to be 2.1 µM. For the same molecule, the microsomal CLint in [5] was found to be 17 µL/min/mg; in series [6], 15 µL/min/mg; in [7] it was 4 µL/min/mg. Besides, the half-maximal inhibitory concentration (IC50) is 11.2 nM in series [1] and 4000 nM in series [2].
